Assay results as given in ChEMBL document CHEMBL4007472, “Identification of novel TACE inhibitors compatible with topical application” (Bioorg Med Chem Lett, 2017).
In brackets after ≈: the same amount, converted by molar mass.

Columns and labels:
[1] = target: T1, Disintegrin and metalloproteinase domain-containing protein 17 (Homo sapiens, UniProt P78536); experiment: Inhibition of TACE in human PBMC assessed as inhibition of LPS-stimulated TNFalpha production
[2] = target: Disintegrin and metalloproteinase domain-containing protein 17 (Sus scrofa, UniProt O77636); experiment: Inhibition of porcine spleen TACE using Mca-Pro-LeuAla-Gln-Ala-Val-Dpa-Arg-Ser-Ser-Ser-[…]-NH2 as substrate by fluorescence assay
Sequence of Disintegrin and metalloproteinase domain-containing protein 17 (Sus scrofa, UniProt O77636) (O77636 whole entry, the tested form may be a part): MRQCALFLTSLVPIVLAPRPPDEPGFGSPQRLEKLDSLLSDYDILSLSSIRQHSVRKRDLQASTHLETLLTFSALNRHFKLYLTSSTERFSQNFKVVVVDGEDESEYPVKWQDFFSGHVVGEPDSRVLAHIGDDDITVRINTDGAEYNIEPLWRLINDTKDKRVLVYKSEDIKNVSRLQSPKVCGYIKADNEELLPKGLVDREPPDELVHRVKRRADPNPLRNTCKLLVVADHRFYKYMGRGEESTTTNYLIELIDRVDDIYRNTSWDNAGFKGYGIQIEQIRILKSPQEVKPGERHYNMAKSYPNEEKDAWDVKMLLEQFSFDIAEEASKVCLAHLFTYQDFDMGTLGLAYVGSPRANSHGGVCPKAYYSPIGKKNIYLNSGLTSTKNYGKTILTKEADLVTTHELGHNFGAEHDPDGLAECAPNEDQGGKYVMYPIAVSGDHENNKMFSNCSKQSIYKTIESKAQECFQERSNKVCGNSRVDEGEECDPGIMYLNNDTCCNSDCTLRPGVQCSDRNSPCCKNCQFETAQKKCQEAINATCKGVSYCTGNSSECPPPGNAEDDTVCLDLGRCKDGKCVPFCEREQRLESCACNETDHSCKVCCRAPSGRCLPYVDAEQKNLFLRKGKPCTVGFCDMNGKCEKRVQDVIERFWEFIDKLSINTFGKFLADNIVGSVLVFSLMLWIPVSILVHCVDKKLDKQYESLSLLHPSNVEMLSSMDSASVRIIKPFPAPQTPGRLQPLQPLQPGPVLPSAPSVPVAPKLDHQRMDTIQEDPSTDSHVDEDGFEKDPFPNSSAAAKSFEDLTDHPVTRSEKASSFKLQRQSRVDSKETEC

[3] = Stability in human liver microsomes assessed as parent compound remaining at 1 uM after 15 mins by LC-MS/MS analysis; assay type: ADME, microsome; conditions: read-out: Stability
[4] = target: T1, Disintegrin and metalloproteinase domain-containing protein 17; experiment: Inhibition of recombinant human TACE catalytic domain using Mca-Pro-Leu-Ala-Gln-Ala-Val-Dpa-Arg-Ser-Ser-Ser-Arg-NH2 as substrate after 2 hrs by fluorescence assay
[5] = target: T1, Disintegrin and metalloproteinase domain-containing protein 17; experiment: Inhibition of TACE in NHEK assessed as reduction in LPS/TPA-stimulated TNFalpha production preincubated for 1 hr followed by LPS/TPA stimulation for 24 hrs by HTRF assay
[6] = Aqueous solubility of the compound; assay type: physicochemical
[7] = target: T1, Disintegrin and metalloproteinase domain-containing protein 17; experiment: Inhibition of TACE (unknown origin) by cell based assay
[8] = target: T1, Disintegrin and metalloproteinase domain-containing protein 17; experiment: Inhibition of TACE (unknown origin)
[9] = target: Disintegrin and metalloproteinase domain-containing protein 17 (Mus musculus, UniProt Q9Z0F8); experiment: Inhibition of TACE in mouse RAW264.7 cells assessed as inhibition of LPS-stimulated TNFalpha production pretreated for 1 hr followed by LPS stimulation for 4 hrs by ELISA; assay type: cell-based
Sequence of Disintegrin and metalloproteinase domain-containing protein 17 (Mus musculus, UniProt Q9Z0F8) (Q9Z0F8 whole entry, the tested form may be a part): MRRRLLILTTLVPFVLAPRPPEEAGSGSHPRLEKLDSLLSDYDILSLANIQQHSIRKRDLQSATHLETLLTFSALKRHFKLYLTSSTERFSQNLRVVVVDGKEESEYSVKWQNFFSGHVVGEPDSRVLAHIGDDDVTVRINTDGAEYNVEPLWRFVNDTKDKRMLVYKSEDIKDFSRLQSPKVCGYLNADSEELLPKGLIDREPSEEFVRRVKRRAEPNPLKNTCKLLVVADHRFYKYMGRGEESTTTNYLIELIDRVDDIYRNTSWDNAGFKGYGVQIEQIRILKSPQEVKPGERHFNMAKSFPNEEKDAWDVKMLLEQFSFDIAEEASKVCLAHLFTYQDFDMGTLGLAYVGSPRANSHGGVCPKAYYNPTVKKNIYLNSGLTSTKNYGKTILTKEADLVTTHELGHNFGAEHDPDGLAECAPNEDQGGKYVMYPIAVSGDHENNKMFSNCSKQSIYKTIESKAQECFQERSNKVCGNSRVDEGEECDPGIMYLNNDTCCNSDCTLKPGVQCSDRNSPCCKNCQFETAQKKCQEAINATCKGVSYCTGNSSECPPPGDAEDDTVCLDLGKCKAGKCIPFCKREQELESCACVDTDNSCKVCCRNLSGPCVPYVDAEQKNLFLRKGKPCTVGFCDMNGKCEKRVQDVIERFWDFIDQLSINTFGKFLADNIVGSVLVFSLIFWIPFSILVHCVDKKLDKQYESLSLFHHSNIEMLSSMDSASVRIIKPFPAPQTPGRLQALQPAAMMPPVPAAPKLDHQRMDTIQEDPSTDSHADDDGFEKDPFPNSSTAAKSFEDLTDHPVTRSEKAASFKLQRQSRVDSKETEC

[10] = target: T1, Disintegrin and metalloproteinase domain-containing protein 17; experiment: Inhibition of recombinant TACE catalytic domain (unknown origin) using Abz-LAQAVRSSSR-Dpa as substrate preincubated for 10 mins followed by substrate addition measured after 10 mins by FRET assay

T1 sequence (P78536 whole entry, the tested form may be a part): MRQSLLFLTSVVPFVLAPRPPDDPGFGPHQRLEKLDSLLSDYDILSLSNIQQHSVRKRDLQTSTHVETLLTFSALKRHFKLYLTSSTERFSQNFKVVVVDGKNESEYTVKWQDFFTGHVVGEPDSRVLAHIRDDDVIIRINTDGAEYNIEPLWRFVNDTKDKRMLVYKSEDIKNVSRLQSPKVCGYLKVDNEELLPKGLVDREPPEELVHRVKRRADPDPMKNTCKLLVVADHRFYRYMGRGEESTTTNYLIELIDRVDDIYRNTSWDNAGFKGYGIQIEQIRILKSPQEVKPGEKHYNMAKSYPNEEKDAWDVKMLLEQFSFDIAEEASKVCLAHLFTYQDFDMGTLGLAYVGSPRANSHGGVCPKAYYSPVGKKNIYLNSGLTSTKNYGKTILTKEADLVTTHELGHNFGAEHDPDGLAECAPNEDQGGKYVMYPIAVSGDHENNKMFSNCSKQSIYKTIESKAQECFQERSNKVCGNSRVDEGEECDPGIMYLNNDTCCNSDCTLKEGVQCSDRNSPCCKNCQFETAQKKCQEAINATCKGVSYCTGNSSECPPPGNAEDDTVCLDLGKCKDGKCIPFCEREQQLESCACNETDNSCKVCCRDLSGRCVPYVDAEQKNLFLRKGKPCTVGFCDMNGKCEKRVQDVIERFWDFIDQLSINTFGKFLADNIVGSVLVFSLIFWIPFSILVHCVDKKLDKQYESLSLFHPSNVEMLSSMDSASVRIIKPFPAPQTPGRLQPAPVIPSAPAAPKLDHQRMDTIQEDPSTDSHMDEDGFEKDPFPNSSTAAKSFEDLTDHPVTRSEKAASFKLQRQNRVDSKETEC

Which IC50 [1] does the source give for C[C@H](C(=O)NO)N1CCNc2cc(Oc3cccc([N+](=O)[O-])c3)ccc2S1 here?
Its IC50 is 470 nM.

What about the IC50 [2] of the same molecule?
Its IC50 is 129 nM.

With COC(=O)CC[C@H](C(=O)NO)N1CCNc2cc(OCc3cc(OC)cc(OC)c3)ccc2S1 as the molecule, how does the IC50 [1] read?
Its IC50 is 7200 nM.

What about the IC50 [2] of the same molecule?
The IC50 was 177 nM.

Which IC50 [1] does the source give for COc1cc(COc2ccc3c(c2)NCCN([C@H](C)C(=O)NO)S3)cc(OC)c1 here?
The IC50 was 770 nM.

What about the IC50 [2] of the same molecule?
Its IC50 is 27 nM.

Which remaining at […], 1 µM [3] does the source give for COC(=O)N1CCN(S(=O)(=O)c2ccc(OCc3cc(C)nc4c3CCCC4)cc2)CC1C(=O)NO (configuration not stated) here?
Its remaining at […], 1 µM is 100%.

And the IC50 [4]?
Its IC50 is 40 nM.

With Cc1cc(COc2ccc(S(=O)(=O)N3CCN(C(=O)C4CCC4)C(C(=O)NO)C3)cc2)c2c(n1)CCCC2 (configuration not stated) as the molecule, how does the remaining at […], 1 µM [3] read?
The remaining at […], 1 µM was 83%.

What about the IC50 [4] of the same molecule?
The IC50 was 19 nM.

Which IC50 [4] does the source give for Cc1cc(COc2ccc(S(=O)(=O)N3Cc4ccccc4C(C(=O)NO)C3)cc2)c2ccccc2n1 (configuration not stated) here?
The IC50 was 84 nM.

And the IC50 [5]?
The IC50 was over 10000 nM.

Which results are given for CCOc1cc(COc2ccc3c(c2)NCCN([C@@H](C(=O)NO)C(C)C)S3)cc(OCC)c1?
IC50 [1]: 8200 nM; IC50 [2]: 51 nM

With CCC(=O)N1CCN(S(=O)(=O)c2ccc(OCc3cc(C)nc4c3CCCC4)cc2)CC1C(=O)NO (configuration not stated) as the molecule, how does the remaining at […], 1 µM [3] read?
The remaining at […], 1 µM was 100%.

And the IC50 [4]?
The IC50 was 23 nM.

With CC(=O)N1CCN(S(=O)(=O)c2ccc(OCc3cc(C)nc4c3CCCC4)cc2)CC1C(=O)NO (configuration not stated) as the molecule, how does the remaining at […], 1 µM [3] read?
The remaining at […], 1 µM was 92%.

What about the IC50 [4] of the same molecule?
The IC50 was 14 nM.

And the IC50 [5]?
Its IC50 is 9100 nM.

And the solubility [6]?
Its solubility is 61 µM (≈ 30.7 µg/mL).

With COc1cc(COc2ccc3c(c2)NCCN([C@@H](C(=O)NO)C(C)C)S3)cc(OC)c1 as the molecule, how does the IC50 [1] read?
Its IC50 is 4000 nM.

What about the IC50 [2] of the same molecule?
The IC50 was 10 nM.

With CCOc1cc(COc2ccc3c(c2)NCCN([C@H](C)C(=O)NO)S3)cc(OCC)c1 as the molecule, how does the IC50 [1] read?
Its IC50 is 4500 nM.

What about the IC50 [2] of the same molecule?
Its IC50 is 81 nM.

What does the source list for O=C(c1ccccc1)[C@@H]1Cc2ccc(cc2)OCCCC[C@H](C(=O)NO)[C@@H](CCCc2cc(Br)cc(Br)c2)C(=O)N1?
IC50 ([7]; read-out: IC50): 5000 nM; IC50 [8]: 79.4 nM

With CNC(=O)[C@@H]1Cc2ccc(cc2)OCCCC[C@H](C(=O)NO)[C@@H](CCCc2cc(OC)ccc2OC)C(=O)N1 as the molecule, how does the IC50 ([7]; read-out: pIC50 (converted)) read?
The IC50 was 3980 nM.

What about the IC50 [8] of the same molecule?
The IC50 was 6.31 nM.

Which results are given for Cc1cc(COc2ccc(S(=O)(=O)N[C@]3(C)CCCC[C@@H]3C(=O)NO)cc2)c2ccccc2n1 (racemic)?
IC50 ([9]; read-out: IC50): 25 nM; IC50 ([10]; read-out: IC50): 0.6 nM

Which results are given for Cc1cc(COc2ccc(S(=O)(=O)N[C@@H]3CNC[C@@H]3C(=O)NO)cc2)c2ccccc2n1 (relative stereo)?
IC50 ([9]; read-out: IC50): 90 nM; IC50 ([10]; read-out: IC50): 4.7 nM

Which results are given for Cc1cc(COc2ccc(S(=O)(=O)N(C)[C@@H]3COC[C@@H]3C(=O)NO)cc2)c2ccccc2n1 (relative stereo)?
IC50 ([9]; read-out: IC50): 930 nM; IC50 ([10]; read-out: pIC50 (converted)): 1.26 nM

What does the source list for Cc1cc(COc2ccc(S(=O)(=O)N(C)[C@H]3CCCC[C@@H]3C(=O)NO)cc2)c2ccccc2n1 (relative stereo)?
IC50 ([9]; read-out: IC50): 911 nM; IC50 ([10]; read-out: IC50): 1.4 nM

Which IC50 ([9]; read-out: IC50) does the source give for Cc1cc(COc2ccc(S(=O)(=O)N[C@@H]3CCC[C@@H]3C(=O)NO)cc2)c2ccccc2n1 (relative stereo) here?
The IC50 was 9 to 11 nM.

What about the IC50 ([9]; read-out: pIC50 (converted)) of the same molecule?
Its IC50 is 10 nM.

What about the IC50 ([10]; read-out: pIC50 (converted)) of the same molecule?
The IC50 was 0.631 nM.

For Cc1cc(COc2ccc(S(=O)(=O)N(C)[C@@H]3CCC[C@@H]3C(=O)NO)cc2)c2ccccc2n1 (relative stereo), which IC50 ([9]; read-out: IC50) is on record?
The IC50 was 93 nM.

And the IC50 ([10]; read-out: IC50)?
The IC50 was 0.6 nM.

Which IC50 ([9]; read-out: IC50) does the source give for CCNC(=O)N1C[C@H](C(=O)NO)[C@H](NS(=O)(=O)c2ccc(OCc3cc(C)nc4ccccc34)cc2)C1 (relative stereo) here?
The IC50 was 51 nM.

And the IC50 ([10]; read-out: pIC50 (converted))?
The IC50 was 1.26 nM.

With Cc1cc(COc2ccc(S(=O)(=O)N[C@H]3CCCC[C@@H]3C(=O)NO)cc2)c2ccccc2n1 (relative stereo) as the molecule, how does the IC50 ([9]; read-out: IC50) read?
Its IC50 is 60 nM.

What about the IC50 ([10]; read-out: IC50) of the same molecule?
Its IC50 is 1.8 nM.

For Cc1cc(COc2ccc(S(=O)(=O)N[C@@H]3CN(C(=O)OC(C)(C)C)C[C@@H]3C(=O)NO)cc2)c2ccccc2n1 (relative stereo), which IC50 ([9]; read-out: IC50) is on record?
Its IC50 is 38 nM.

What about the IC50 ([10]; read-out: IC50) of the same molecule?
Its IC50 is 0.6 nM.

Which results are given for Cc1cc(COc2ccc(S(=O)(=O)N[C@H]3CCN(C(=O)NC(C)(C)C)C[C@H]3C(=O)NO)cc2)c2ccccc2n1 (relative stereo)?
IC50 ([9]; read-out: IC50): 30 nM; IC50 ([10]; read-out: IC50): 0.6 nM

For Cc1cc(COc2ccc(S(=O)(=O)N[C@@H]3CCCC[C@@H]3C(=O)NO)cc2)c2ccccc2n1 (relative stereo), which IC50 ([9]; read-out: IC50) is on record?
Its IC50 is 80 nM.

And the IC50 ([10]; read-out: IC50)?
The IC50 was 1 nM.

With CC(=O)N1C[C@H](C(=O)NO)[C@H](NS(=O)(=O)c2ccc(OCc3cc(C)nc4ccccc34)cc2)C1 (relative stereo) as the molecule, how does the IC50 ([9]; read-out: IC50) read?
The IC50 was 20 nM.

What about the IC50 ([10]; read-out: IC50) of the same molecule?
Its IC50 is 0.6 nM.

With Cc1cc(COc2ccc(S(=O)(=O)N(C)C3C(C(=O)NO)[C@@H]4CC[C@H]3O4)cc2)c2ccccc2n1 (relative stereo; form 1) as the molecule, how does the IC50 ([9]; read-out: IC50) read?
The IC50 was 250 nM.

What about the IC50 ([10]; read-out: IC50) of the same molecule?
Its IC50 is 43 nM.

What does the source list for Cc1cc(COc2ccc(S(=O)(=O)N(C)C3C(C(=O)NO)[C@@H]4CC[C@H]3O4)cc2)c2ccccc2n1 (relative stereo; form 2)?
IC50 ([9]; read-out: IC50): 18 nM; IC50 ([10]; read-out: IC50): 2 nM
